For three molecules, Kd results are on record in paper PMC11697029 (Nature Communications, 2025).

For the assay, the target named is T1, RmlT (Listeria monocytogenes, UniProt Q8Y838).
T1 sequence (Q8Y838 1-623): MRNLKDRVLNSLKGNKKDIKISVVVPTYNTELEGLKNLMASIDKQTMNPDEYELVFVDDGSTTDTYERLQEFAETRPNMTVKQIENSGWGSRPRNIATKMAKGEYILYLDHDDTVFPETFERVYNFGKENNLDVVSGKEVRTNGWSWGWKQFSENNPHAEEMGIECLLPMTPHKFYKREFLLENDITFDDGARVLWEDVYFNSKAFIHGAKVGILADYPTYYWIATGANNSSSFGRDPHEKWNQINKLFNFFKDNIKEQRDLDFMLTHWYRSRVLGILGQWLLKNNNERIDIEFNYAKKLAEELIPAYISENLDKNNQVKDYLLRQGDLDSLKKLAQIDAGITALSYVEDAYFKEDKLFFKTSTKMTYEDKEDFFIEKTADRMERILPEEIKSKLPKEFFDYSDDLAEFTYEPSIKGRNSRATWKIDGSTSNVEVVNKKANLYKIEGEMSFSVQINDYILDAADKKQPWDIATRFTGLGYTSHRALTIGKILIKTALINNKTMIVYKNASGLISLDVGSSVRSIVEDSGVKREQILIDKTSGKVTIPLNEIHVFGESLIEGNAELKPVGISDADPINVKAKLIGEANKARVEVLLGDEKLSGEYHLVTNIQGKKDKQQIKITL
The assay is described as follows: isothermal titration calorimetry. Format: binding. (In general: Isothermal titration calorimetry measures the heat released or taken up as one component is titrated into another.)

As for `Cc1cn([C@H]2C[C@H](O)[C@@H](COP(=O)(O)OP(=O)(O)O[C@H]3O[C@H](CO)[C@@H](O)[C@H](O)[C@H]3O)O2)c(=O)[nH]c1=O` [TDP-glucose], the Kd was approximately 10 µM. On to `Cc1cn([C@H]2C[C@H](O)[C@@H](COP(=O)(O)OP(=O)(O)O[C@H]3O[C@@H](C)[C@H](O)[C@@H](O)[C@H]3O)O2)c(=O)[nH]c1=O` [TDP-rhamnose], for which the Kd was approximately 13 µM. `Cc1cn([C@H]2C[C@H](O)[C@@H](COP(=O)(O)OP(=O)(O)O)O2)c(=O)[nH]c1=O` [TDP] gave a Kd of approximately 50 µM.

What is called Kd is the free concentration of one partner at which half of the binding sites on the other are occupied at equilibrium, for simple one-to-one binding.
